# Experimental data taken from the supplement of paper PMC11208160.
# Assay: recombinant barcode read abundance after kanamycin selection (control-corrected) (log10(CPM+1)); higher = more efficient recombination; sequences stand for … in AGTGCAGAGAAAATCGGCCAGTTTTCTCTGCCTGCAGTCCGCATGCCGT…AGATTTATGCAGCGGACTGCCTTTCTCCCAAAGTGATAAACCGGACAGTATCATGGACCGGTTTTCCCGGTAATCCGTATTTGCAAGGTTGGTTTCACT; site = the 11-nt target
# Procedure: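 Pooled E. coli target-specificity screen for the IS621 bridge recombinase. Each library plasmid pairs an 11-nt target (CT core) with a bridge RNA whose target-binding loop (9-nt LTG + 4-nt RTG) is reprogrammed; the rest of the 177-nt WT IS621 bridge RNA scaffold is fixed. The plasmid is co-electroporated with a WT donor plasmid; recombinase is induced with 0.1 mM IPTG and recombinants are selected on kanamycin. Recombinant barcodes are sequenced, converted to CPM, averaged over two biological replicates and corrected by the unselected control CPM. Molecule = full bridge RNA written as DNA: LTG = specificity nt 1-9, RTG = reverse complement of specificity nt 8-11, in the WT scaffold.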
# 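Note: IS621 recombinase and bridge RNA in Escherichia coli cells.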
row,Sequence,recombinant barcode read abundance (log10)
1,AAGTCTCCTTGGGTTCTAACCTGTTGCCT (site AAGACTCCTAG),0.134
2,AAGTCTCCTTGGGTTCTAACCTGTTGCCT (site AAGTCTCCTAG),0.64
3,AAGTGAGCTTGGGTTCTAACCTGTTGCAG (site AAGTGAGCTCT),2.69
4,AAGTGAGCTTGGGTTCTAACCTGTTGCAG (site AATAGAGCTCT),0.12
5,AAGTGGACTTGGGTTCTAACCTGTTGCCT (site AAGTCGACTAG),0.121
6,AAGTGGACTTGGGTTCTAACCTGTTGCCT (site AAGTGGACTAG),1.93
7,AAGTTAGCTTGGGTTCTAACCTGTTGCGG (site AAGTTAGCTCC),2.28
8,AAGTTAGCTTGGGTTCTAACCTGTTGCGG (site GGCAACTCTAG),0.108
9,AAGTTGACTTGGGTTCTAACCTGTTGCCT (site AAATTGACTAG),0.378
10,AAGTTGACTTGGGTTCTAACCTGTTGCCT (site AACTTGACTAG),0.248
11,AAGTTGACTTGGGTTCTAACCTGTTGCCT (site AAGTTGACTAG),1.57
12,AAGTTGACTTGGGTTCTAACCTGTTGCCT (site AATTTGACTAG),0.304
13,AATAACCCTTGGGTTCTAACCTGTTGCCT (site AATAACCCTAG),1.2
14,AATAACCCTTGGGTTCTAACCTGTTGCCT (site ACTAACCCTAG),0.145
15,AATAACCCTTGGGTTCTAACCTGTTGCCT (site AGTAACCCTAG),0.146
16,AATAACCCTTGGGTTCTAACCTGTTGCCT (site ATTAACCCTAG),0.0794
17,AATAGCTCTTGGGTTCTAACCTGTTGCCT (site AATAGCTCTAG),0.82
18,AATAGCTCTTGGGTTCTAACCTGTTGCCT (site CATAGCTCTAG),0.0982
19,AATAGCTCTTGGGTTCTAACCTGTTGCCT (site GATAGCTCTAG),0.166
20,AATAGCTCTTGGGTTCTAACCTGTTGCCT (site TATAGCTCTAG),0.116
21,AATATCTCTTGGGTTCTAACCTGTTGCCA (site AATATCTCTTG),0.278
22,AATATCTCTTGGGTTCTAACCTGTTGCCA (site CTACCTACTCC),0.144

row,Sequence,recombinant barcode read abundance (log10)
1,AATATGCCTTGGGTTCTAACCTGTTGCCT (site AATATGCCTAG),0.582
2,AATATGCCTTGGGTTCTAACCTGTTGCCT (site AATCTCCCTAG),0.0372
3,AATGCTTCTTGGGTTCTAACCTGTTGCCT (site AATGCTTCTAG),1.05
4,AATGCTTCTTGGGTTCTAACCTGTTGCCT (site AATTGTTCTAG),0.167
5,AATGGGACTTGGGTTCTAACCTGTTGCCT (site AATGGGACTAG),1.72
6,AATGGGACTTGGGTTCTAACCTGTTGCCT (site AATGGGCCTAG),0.171
7,AATGGGACTTGGGTTCTAACCTGTTGCCT (site AATGGGGCTAG),0.222
8,AATGGGACTTGGGTTCTAACCTGTTGCCT (site AATGGGTCTAG),0.0882
9,AATGGGGCTTGGGTTCTAACCTGTTGCCT (site AATGGGACTAG),0.369
10,AATGGGGCTTGGGTTCTAACCTGTTGCCT (site AATGGGCCTAG),0.189
11,AATGGGGCTTGGGTTCTAACCTGTTGCCT (site AATGGGGCTAG),0.79
12,AATGGGGCTTGGGTTCTAACCTGTTGCCT (site AATGGGTCTAG),0.274
13,AATGTATCTTGGGTTCTAACCTGTTGCCT (site AATGAATCTAG),0
14,AATGTATCTTGGGTTCTAACCTGTTGCCT (site AATGCATCTAG),0.0382
15,AATGTATCTTGGGTTCTAACCTGTTGCCT (site AATGGATCTAG),0.0435
16,AATGTATCTTGGGTTCTAACCTGTTGCCT (site AATGTATCTAG),1.17
17,AATTCGACTTGGGTTCTAACCTGTTGCCT (site AATTCGACTAG),0.399
18,AATTCGACTTGGGTTCTAACCTGTTGCCT (site ACTTCGACTAG),0.0747
19,AATTCGACTTGGGTTCTAACCTGTTGCCT (site AGTTCGACTAG),0.222
20,AATTCGACTTGGGTTCTAACCTGTTGCCT (site ATTTCGACTAG),0
21,AATTGTCCTTGGGTTCTAACCTGTTGCTT (site AATTGTCCTAA),0.246
22,AATTGTCCTTGGGTTCTAACCTGTTGCTT (site AATTGTCCTAC),0.257

row,Sequence,recombinant barcode read abundance (log10)
1,AATTGTCCTTGGGTTCTAACCTGTTGCTT (site AATTGTCCTAG),0.0453
2,AATTGTCCTTGGGTTCTAACCTGTTGCTT (site AATTGTCCTAT),0.125
3,AATTGTTCTTGGGTTCTAACCTGTTGCCT (site AATGCTTCTAG),0.028
4,AATTGTTCTTGGGTTCTAACCTGTTGCCT (site AATTGTTCTAG),0.253
5,AATTTCTCTTGGGTTCTAACCTGTTGCCT (site AATTTCTCTAG),0.0321
6,AATTTCTCTTGGGTTCTAACCTGTTGCCT (site CATTTCTCTAG),0.0907
7,AATTTCTCTTGGGTTCTAACCTGTTGCCT (site GATTTCTCTAG),0.496
8,AATTTCTCTTGGGTTCTAACCTGTTGCCT (site TATTTCTCTAG),0.0924
9,ACAAAGACTTGGGTTCTAACCTGTTGCGC (site ACAAAGACTGC),0.656
10,ACAAAGACTTGGGTTCTAACCTGTTGCGC (site ACACAGACTGC),0.242
11,ACAAAGACTTGGGTTCTAACCTGTTGCGC (site ACAGAGACTGC),0.326
12,ACAAAGACTTGGGTTCTAACCTGTTGCGC (site ACATAGACTGC),0.137
13,ACAAAGGCTTGGGTTCTAACCTGTTGCGG (site ACAAAAGCTCC),1.69
14,ACAAAGGCTTGGGTTCTAACCTGTTGCGG (site ACAAAGGCTCC),2.51
15,ACAAGACCTTGGGTTCTAACCTGTTGCAT (site ACAAGACCTAT),1.47
16,ACAAGACCTTGGGTTCTAACCTGTTGCAT (site TTCTAGTCTTA),0.0713
17,ACAATACCTTGGGTTCTAACCTGTTGCCT (site ACAATACCTAG),1.16
18,ACAATACCTTGGGTTCTAACCTGTTGCCT (site ATAATACCTAG),0.143
19,ACAATAGCTTGGGTTCTAACCTGTTGCTG (site ACAATAGCTCA),0.738
20,ACAATAGCTTGGGTTCTAACCTGTTGCTG (site ACACTAGCTCA),0.0138
21,ACAATAGCTTGGGTTCTAACCTGTTGCTG (site ACAGTAGCTCA),0.0118
22,ACAATAGCTTGGGTTCTAACCTGTTGCTG (site ACATTAGCTCA),0.0649
